The text below walks through data of patent US20260250278A1, “PHENYL-SUBSTITUTED DIHYDRONAPHTHYRIDINE COMPOUNDS, AND PREPARATION AND USE THEREOF” (SUZHONG PHARMACEUTICAL GROUP CO., LTD., priority 2022, published 2026).

Series [1] can be described thus: Pharmacokinetic test of mice (intravenous administration). It is filed as in vivo. As to conditions: mouse, plasma; CD1 mice, intravenous 1 mg/kg. The protocol:
This experiment was intended to evaluate a pharmacokinetic behavior of a compound after intravenous injection or intragastric administration in the mice. Intravenous injection administration: a test compound was prepared into 0.2 mg/mL clear solution, a solvent was 10% ethanol/40% polyethylene glycol 400/50% ultrapure water, and after administration, plasma was collected 0.083 hour, 0.25 hour, 0.5 hour, 1 hour, 2 hours, 4 hours, 8 hours, 24 hours and 48 hours later.
(§1) A concentration of the test compound in the plasma was determined by high-performance liquid chromatography-tandem mass spectrometry (LC-MS/MS). Retention time, chromatogram collection and chromatogram integration of compounds and internal standards were treated by software Analyst (Applied Biosystems), and data statistics was treated by software Analyst (Applied Biosystems).
(§2) A plasma concentration was treated by a non-atrioventricular model of Winnonlin™ Version 6.1 (Pharsight, Mountain View, CA) pharmacokinetic software, and pharmacokinetic parameters were calculated by a linear logarithmic trapezoid method.

Series [2] deals with CYP3A4 (Homo sapiens, UniProt P08684). Kind of series: biochemical. Format: in vitro ADME.
Series [3] in a line: Pharmacokinetic test of rats (intravenous and intragastric administration). As to conditions: SD rats. It is filed as in vivo. On the procedure:
This experiment was intended to evaluate a pharmacokinetic behavior of an implementing compound after intravenous injection or intragastric administration in the rats. Intravenous injection administration: a test compound was prepared into 0.2 mg/mL clear solution, a solvent was 10% ethanol, 40% polyethylene glycol 400 and 50% water, and after administration, plasma was collected 0.083 hour, 0.25 hour, 0.5 hour, 1 hour, 2 hours, 4 hours, 8 hours and 24 hours later. Intragastric administration: a test compound was prepared into 1 mg/mL clear solution, a solvent was 10% ethanol/40% polyethylene glycol 400/50% water, and after administration, plasma was collected 0.25 hour, 0.5 hour, 1 hour, 2 hours, 4 hours, 8 hours and 24 hours later.
as §1, §2
Pharmacokinetic parameters of the compounds in the rats with an intravenous injection dose of 1 mg/kg and an intragastric and oral dose of 5 mg/kg were as shown in Table 20 below.

The mark [4] stands for this setting: rat, plasma, intragastric and oral administration 5 mg/kg.
Where [5] appears, read: rat, plasma, intravenous 1 mg/kg.

The AUC(0-t) is the area under the concentration-time curve up to a stated or last time point. The low end stands for less exposure, the high end for more exposure. A word on the IC50: it is the point on the concentration scale where inhibition reaches its midpoint. A high value points to weaker potency in that assay. The term Cmax denotes the maximum level reached in the sampled fluid or tissue. By clearance is commonly meant the rate of elimination divided by the concentration. What is called half-life is the time needed for the level to fall by half in the phase considered. A lower half-life goes with rapid decline.

CYP3A4, sequence (P08684 2-503 limits assumed): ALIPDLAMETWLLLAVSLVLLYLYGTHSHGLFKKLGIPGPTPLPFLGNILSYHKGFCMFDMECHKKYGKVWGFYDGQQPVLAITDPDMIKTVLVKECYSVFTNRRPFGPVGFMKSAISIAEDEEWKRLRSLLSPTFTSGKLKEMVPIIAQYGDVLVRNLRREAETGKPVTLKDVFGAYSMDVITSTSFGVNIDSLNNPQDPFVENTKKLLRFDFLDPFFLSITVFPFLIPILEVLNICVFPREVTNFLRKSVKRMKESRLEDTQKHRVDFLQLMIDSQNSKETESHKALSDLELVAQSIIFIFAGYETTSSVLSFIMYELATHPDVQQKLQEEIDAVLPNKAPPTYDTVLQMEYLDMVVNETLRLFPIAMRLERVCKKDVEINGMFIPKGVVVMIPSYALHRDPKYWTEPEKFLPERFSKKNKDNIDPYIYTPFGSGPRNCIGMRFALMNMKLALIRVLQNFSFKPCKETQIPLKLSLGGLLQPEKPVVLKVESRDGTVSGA

Compound `CCOc1nc2ccsc2c2c1[C@H](c1ccc(C#N)cc1OC)C(C(N)=O)=C(C)N2` [Example 38, (S)-6-(4-cyano-2-methoxyphenyl)-5-ethoxy-8-methyl-6,9-dihydrothieno[3,2-h][1,6]naphthyridine-7-formamide] had an AUC(0-t) in series [1] of 2.55 µg·h/mL.

Turning to `CCOc1ncc(C)c2c1[C@H](c1ccc(C#N)cc1OC)C(C(N)=O)=C(C)N2` [Finerenone, reference compound], the AUC(0-t) in series [1] came out at 142 µg·h/mL. Further, in series [2] (CYP3A4-5M IC50, human CYP3A4, CYP3A4-5M), 9.98 µM corresponded to half-maximal inhibition (IC50). The compound also displayed an IC50 in series [2] (CYP3A4-5T IC50, human CYP3A4, CYP3A4-5T) of 8.02 µM. The same compound yielded a F in series [3] (intragastric and oral administration 5 mg/kg) of 60.3%. Moreover, in series [3] (setting [4]), the AUC(0-t) was found to be 307 µg·h/mL and the Cmax came to 23800 ng/mL. In series [3] (setting [5]), this compound showed an AUC(0-t) of 91.2 µg·h/mL, a clearance of 0.34 mL/min/kg and a half-life of 9.62 h.
